The source of these data is patent US10399985B2, “(Hetero)aryl imidazoles/pyrazoles for treatment of neurological disorders” (Hoffmann-La Roche Inc., priority 2014, dated 2019).

Usually IC50 stands for the concentration at which inhibition is half-maximal.

human PDE10A, sequence (Q9Y233 other isoform, or with tags, fused parts or gaps): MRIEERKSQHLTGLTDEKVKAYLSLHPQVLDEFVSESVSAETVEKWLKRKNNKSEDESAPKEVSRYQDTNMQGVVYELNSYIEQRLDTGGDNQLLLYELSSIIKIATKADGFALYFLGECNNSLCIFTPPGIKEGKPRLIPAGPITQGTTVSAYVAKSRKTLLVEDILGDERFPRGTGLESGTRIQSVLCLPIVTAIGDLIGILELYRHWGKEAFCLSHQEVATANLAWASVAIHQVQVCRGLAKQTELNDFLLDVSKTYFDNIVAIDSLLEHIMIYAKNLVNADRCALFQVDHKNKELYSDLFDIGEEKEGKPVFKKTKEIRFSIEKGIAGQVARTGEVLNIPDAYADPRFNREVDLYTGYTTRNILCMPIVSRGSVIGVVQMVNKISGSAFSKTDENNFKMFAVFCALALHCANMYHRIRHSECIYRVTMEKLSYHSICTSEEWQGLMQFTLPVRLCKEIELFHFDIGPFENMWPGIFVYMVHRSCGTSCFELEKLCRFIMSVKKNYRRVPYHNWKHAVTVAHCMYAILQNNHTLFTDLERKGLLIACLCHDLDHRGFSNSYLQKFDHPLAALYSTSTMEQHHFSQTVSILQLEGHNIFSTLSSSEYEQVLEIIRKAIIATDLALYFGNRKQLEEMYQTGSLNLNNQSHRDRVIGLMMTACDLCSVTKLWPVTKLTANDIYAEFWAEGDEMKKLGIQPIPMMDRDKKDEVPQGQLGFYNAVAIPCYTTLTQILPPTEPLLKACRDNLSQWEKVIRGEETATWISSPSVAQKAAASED

The first test relates to rats.
Test: not given
The conditions noted are these: sub-chronic treatment with PCP; cited from earlier work.
With `COc1ccc(Cc2nccc3cc(OC)c(OC)cc23)cc1OC` [papaverine, Papaverine], the “deficits in the extra-dimensional shift learning” value is given as “attenuate the deficits”.

A further test concerns the target human PDE10A (Homo sapiens (Human), UniProt Q9Y233). Nature of the test: human PDE10A full length Scintillation Proximity Assay (SPA). It counts as biochemical. As to conditions: 50 nM cGMP and 50 nM [3H]-cGMP, 20 minutes at room temperature. As to the method:
The following test was carried out in order to determine the activity of the compounds of the present invention. PDE10 activity of the compounds of the present invention was determined using a Scintillation Proximity Assay (SPA)-based method similar to the one previously described (Fawcett, L. et al., ProcNatl Acad Sci USA (2000) 97(7):3702-3707).
The human PDE10A full length assay was performed in 96-well micro titer plates. The reaction mixture of 50 μl contained 20 mM HEPES pH=7.5/10 mM MgCl2/0.05 mg/ml BSA (Sigma cat. # A-7906), 50 nM cGMP (Sigma, cat. # G6129) and 50 nM [3H]-cGMP (GE Healthcare, cat. # TRK392 S. A. 13.2 Ci/mmol), 3.75 ng/well PDE10A enzyme (Enzo Life Science, Lausen, Switzerland cat # SE-534) with or without a specific test compound. A range of concentrations of the potential inhibitor was used to generate data for calculating the concentration of inhibitor resulting in 50% of the effect (e.g. IC50, the concentration of the competitor inhibiting PDE10A activity by 50%). Non-specific activity was tested without the enzyme. The reaction was initiated by the addition of the substrate solution (cGMP and [3H]-cGMP) and allowed to progress for 20 minutes at room temperature. The reaction was terminated by adding 25 μl of YSi-SPA scintillation beads (GE Healthcare, cat. # RPNQ0150) in 18 mM zinc sulphate solution (stop reagent). After 1 h under shaking, the plate was centrifuged one minute at 170 g to allow beads to settle. Afterwards, radioactive counts were measured on a Perkin Elmer TopCount Scintillation plate reader.
In general terms: In a scintillation proximity assay essentially only radioactivity close to the scintillant gives light.
The compound `Cn1cc(-c2ccccc2)nc1COc1ccc2nc(C(F)(F)F)cn2n1` [Example 45, 6-((1-Methyl-4-phenyl-1H-imidazol-2-yl)methoxy)-2-(trifluoromethyl)imidazo[1,2-b]pyridazine] displayed an IC50 of 328 nM.
Take `CCc1nc2ccc(OCc3nc(-c4ccccc4)cn3C)nn2c1C` [Example 35, 2-Ethyl-3-methyl-6-((1-methyl-4-phenyl-1H-imidazol-2-yl)methoxy)imidazo[1,2-b]pyridazine]: the IC50 came out at 264 nM. The IC50 values of the last two compounds are within 1.5-fold of each other.
The compound `Cn1cc(-c2ccccc2)nc1COc1ccc2nc(C3CC3)c(CO)n2n1` [Example 43, (2-Cyclopropyl-6-((1-methyl-4-phenyl-1H-imidazol-2-yl)methoxy)imidazo[1,2-b]pyridazin-3-yl)methanol] registered an IC50 of 167 nM.
Regarding `Cc1c(CO)nc2ccc(OCc3nc(-c4ccccc4)cn3C)nn12` [Example 42, (3-Methyl-6-((1-methyl-4-phenyl-1H-imidazol-2-yl)methoxy)imidazo[1,2-b]pyridazin-2-yl)methanol], the IC50 came out at 363 nM. This IC50 lies about 2.2-fold higher than the previous one.
Take `Cc1nn2ccc(C#Cc3nc(-c4ccccc4)cn3C)nc2c1C` [Example 4, 2,3-Dimethyl-5-((1-methyl-4-phenyl-1H-imidazol-2-yl)ethynyl)pyrazolo[1,5-a]pyrimidine]: half-maximal inhibition (IC50) required 1.5 nM.
As for `Cc1nc2ccc(CCc3nc(-c4cnccn4)cn3C)nn2c1C` [Example 29, 2,3-Dimethyl-6-(2-(1-methyl-4-(pyrazin-2-yl)-1H-imidazol-2-yl)ethyl)imidazo[1,2-b]pyridazine], the IC50 amounted to 33.2 nM. This IC50 is about 22-fold higher than that of the compound before.
The same measure, in the same setting: with `COc1cc(OCc2nc(-c3ccccc3)cn2C)nn2c(C)c(C(F)(F)F)nc12` [Example 41, 8-Methoxy-3-methyl-6-((1-methyl-4-phenyl-1H-imidazol-2-yl)methoxy)-2-(trifluoromethyl)imidazo[1,2-b]pyridazine] the figure was 11.8 nM; with `Cc1c(C(F)F)nc2ccc(CCc3nc(-c4ccccc4)cn3C)nn12` [Example 19, 2-(Difluoromethyl)-3-methyl-6-(2-(1-methyl-4-phenyl-1H-imidazol-2-yl)ethyl)imidazo[1,2-b]pyridazine], 6.4 nM; with `Cc1cn2nc(OCc3nc(-c4ccccc4)cn3C)ccc2n1` [Example 38, 2-Methyl-6-((1-methyl-4-phenyl-1H-imidazol-2-yl)methoxy)imidazo[1,2-b]pyridazine], 133 nM.
Same read-out and setting: with `Cn1cc(-c2ccccc2)nc1CCc1ccc2nc(C3CC3)c(CO)n2n1` [Example 18, (2-Cyclopropyl-6-(2-(1-methyl-4-phenyl-1H-imidazol-2-yl)ethyl)imidazo[1,2-b]pyridazin-3-yl)methanol] the figure was 656 nM.
Compound `Cc1c(C(N)=O)nc2ccc(OCc3nc(-c4ccccc4)cn3C)nn12` [Example 39, 3-Methyl-6-((1-methyl-4-phenyl-1H-imidazol-2-yl)methoxy)imidazo[1,2-b]pyridazine-2-carboxamide] yielded an IC50 of 114 nM.
In the case of `Cn1cc(-c2ccccc2)nc1C#Cc1ccc2nc(C3CC3)c(CO)n2n1` [Example 6, (2-Cyclopropyl-6-((1-methyl-4-phenyl-1H-imidazol-2-yl)ethynyl)imidazo[1,2-b]pyridazin-3-yl)methanol], inhibition was half-maximal at 1.9 nM (IC50).
Consider `Cc1cc(CCc2nc(-c3ccccn3)cn2C)nn2c(C)c(C(F)(F)F)nc12` [Example 30, 3,8-Dimethyl-6-(2-(1-methyl-4-(pyridin-2-yl)-1H-imidazol-2-yl)ethyl)-2-(trifluoromethyl)imidazo[1,2-b]pyridazine], for which it took 3.7 nM to reach half-maximal inhibition (IC50).
